Literature values in patent US6733789B1 (Biovail Laboratories, Inc., priority 1999, dated 2004).

peak plasma concentration (after a 10 mg dose, oral): 40 ng/mL
dependence of pharmacokinetic properties on age or dose (dose range 2.5-100 mg): not dependent on age or dose
excreted unchanged in the urine (in vivo): About 50%
mean plasma half life (in vivo): 10 to 12 h
pre-systemic metabolism (oral administration): below 10%
time to peak plasma concentrations (oral administration): three
biotransformed in the liver (subsequent elimination of inactive metabolites via the kidneys): 50%
Compound: CC(C)NCC(O)COc1ccc(COCCOC(C)C)cc1 (stereo not drawn) [bisoprolol]
effect of food on peak plasma concentrations (concomitant food intake or fasting): appear not to be affected by concomitant food intake or fasting
adverse effects (spontaneously mentioned by patients treated with bisoprolol): Dizziness, headache and tiredness are the most frequent adverse effects
